Measurements taken from US10888519B2, “Immediate release pharmaceutical composition of iron chelating agents” (Jubilant Generics Limited, priority 2016, dated 2021).

Key:
[1] = Bulk density, tapped density and flow properties (Hausner Ratio, Compressibility Index); assay type: physicochemical; settings: for Hausner Ratio: tapped density / bulk density
Procedure: The composition of present invention were analyzed for bulk and tapped density and flow properties such as Hausner Ratio, Compressibility Index. Bulk Density and Tapped Density is determined using the standard method of Test 616 (Bulk Density and Tapped Density) of USP 32. The Hausner ratio may be calculated using formula ptap/pbulk where ptap represents tapped density of granulate mass and pbulk represents the loose bulk density of granulate mass. A Hausner ratio of <1.25 indicates a powder that is free flowing whereas >1.25 indicates poor flowability. Compressibility index is indirect measure of the flowability of the powder and it is determined according to US Pharmacopeia General Chapter <1174>. The smaller the compressibility index the better the flow properties. For example 5-15 indicates excellent, 12-16 good, 18-21 fair and >23 poor flow.

[2] = cited from earlier work
[3] = listed as Active Pharmaceutical Ingredient

Tapped Density [1]: 0.300 g/mL
bulk density ([1]; API prior to granulation versus composition): about 0.185 g/mL
bulk density ([1]; Table 4): 0.185 g/mL
Compressibility Index (%) ([1]; listed as API): about 38.33%
Compressibility Index (%) [1, 3]: 38.33% (Very Poor)
Hausner Ratio ([1]; listed as API): about 1.62
Hausner Ratio [1, 3]: 1.62 (Very Poor)
SMILES: O=C(O)c1ccc(-n2nc(-c3ccccc3O)nc2-c2ccccc2O)cc1 [Deferasirox, 4-[3,5-bis(2-hydroxyphenyl)-1H-1,2,4-triazol-1-yl]benzoic acid]
solubility in water [2]: poorly soluble in water
